Measurements from ChEMBL document CHEMBL3885881, “DrugMatrix”.

Species: Rattus norvegicus
Assay: DrugMatrix - Regimen: Daily Repeat
Format: toxicity, organism-based, Sprague-Dawley
Design: regimen Daily Repeat, gender Male, age 6-8 weeks
Settings: in vivo, po, route oral GAVAGE, vehicle .5 % CMC; for ABSOLUTE BASOPHIL / ABSOLUTE EOSINOPHIL / ABSOLUTE LYMPHOCYTE / ABSOLUTE MONOCYTE / ABSOLUTE SEGMENTED NEUTROPHIL / BASOPHIL / EOSINOPHIL / ERYTHROCYTE COUNT / HEMATOCRIT / HEMOGLOBIN / LEUKOCYTE COUNT / LYMPHOCYTE / MEAN CORPUSCULAR HEMOGLOBIN / MEAN CORPUSCULAR HEMOGLOBIN CONCENTRATION / MEAN CORPUSCULAR VOLUME / MONOCYTE / NEUTROPHIL / NUCLEATED RED BLOOD CELLS / PLATELET COUNT: tissue Blood; for ALANINE AMINOTRANSFERASE / ALBUMIN / ALKALINE PHOSPHATASE / ASPARTATE AMINOTRANSFERASE / BLOOD UREA NITROGEN / CARBON DIOXIDE / CHLORIDE / CHOLESTEROL / CREATINE PHOSPHOKINASE / CREATININE / GLUCOSE / LACTATE DEHYDROGENASE / LIPASE / PHOSPHORUS / POTASSIUM / SODIUM / TOTAL BILIRUBIN / TOTAL PROTEIN / URIC ACID: tissue Plasma
[1] = 300 mg/kg, 72 h, dose level Low, time 3 day
[2] = 300 mg/kg, 120 h, dose level Low, time 5 day
[3] = 2000 mg/kg, 72 h, dose level High, time 3 day
[4] = 2000 mg/kg, 120 h, dose level High, time 5 day

CC1(C)S[C@@H]2[C@H](NC(=O)[C@H](N)c3ccccc3)C(=O)N2[C@H]1C(=O)O [AMPICILLIN]
ABSOLUTE BASOPHIL [1]: 0 CELLS/uL | ABSOLUTE EOSINOPHIL [1]: 0 CELLS/uL | ABSOLUTE LYMPHOCYTE [1]: 16747 CELLS/uL | ABSOLUTE MONOCYTE [1]: 205.33 CELLS/uL | ABSOLUTE SEGMENTED NEUTROPHIL [1]: 2214.33 CELLS/uL | BASOPHIL [1]: 0% | EOSINOPHIL [1]: 0% | ERYTHROCYTE COUNT [1]: 5.53 x10E6/uL | HEMATOCRIT [1]: 34.2% | HEMOGLOBIN [1]: 13.4 G/DL | LEUKOCYTE COUNT [1]: 19.17 x10E3/uL | LYMPHOCYTE [1]: 87.33% | MEAN CORPUSCULAR HEMOGLOBIN [1]: 24.23 pg | MEAN CORPUSCULAR HEMOGLOBIN CONCENTRATION [1]: 39.17 G/DL | MEAN CORPUSCULAR VOLUME [1]: 61.9 fL | MONOCYTE [1]: 1% | NEUTROPHIL [1]: 11.67% | NUCLEATED RED BLOOD CELLS [1]: 0 /100WBC | PLATELET COUNT [1]: 1348.33 x10E3/uL | ALANINE AMINOTRANSFERASE [1]: 47.67 u/L | ALBUMIN [1]: 4.03 G/DL | ALKALINE PHOSPHATASE [1]: 258.67 u/L | ASPARTATE AMINOTRANSFERASE [1]: 88 u/L | BLOOD UREA NITROGEN [1]: 17.67 mg/dL | CARBON DIOXIDE [1]: 25.67 mmol/L | CHLORIDE [1]: 101.33 MEQ/L | CHOLESTEROL [1]: 82.67 mg/dL | CREATINE PHOSPHOKINASE [1]: 507.67 u/L | CREATININE [1]: 0.28 mg/dL | GLUCOSE [1]: 170 mg/dL | LACTATE DEHYDROGENASE [1]: 299.67 u/L | LIPASE [1]: 9.33 u/L | PHOSPHORUS [1]: 11.7 mg/dL | POTASSIUM [1]: 6.51 MEQ/L | SODIUM [1]: 143.9 MEQ/L | TOTAL BILIRUBIN [1]: 0.17 mg/dL | TOTAL PROTEIN [1]: 5.87 G/DL | URIC ACID [1]: 2.2 mg/dL | ABSOLUTE BASOPHIL [2]: 0 CELLS/uL | ABSOLUTE EOSINOPHIL [2]: 67.33 CELLS/uL | ABSOLUTE LYMPHOCYTE [2]: 16228 CELLS/uL | ABSOLUTE MONOCYTE [2]: 111.33 CELLS/uL | ABSOLUTE SEGMENTED NEUTROPHIL [2]: 1460 CELLS/uL | BASOPHIL [2]: 0% | EOSINOPHIL [2]: 0.33% | ERYTHROCYTE COUNT [2]: 5.55 x10E6/uL | HEMATOCRIT [2]: 34.3% | HEMOGLOBIN [2]: 13.4 G/DL | LEUKOCYTE COUNT [2]: 17.87 x10E3/uL | LYMPHOCYTE [2]: 91% | MEAN CORPUSCULAR HEMOGLOBIN [2]: 24.2 pg | MEAN CORPUSCULAR HEMOGLOBIN CONCENTRATION [2]: 39.1 G/DL | MEAN CORPUSCULAR VOLUME [2]: 61.93 fL | MONOCYTE [2]: 0.67% | NEUTROPHIL [2]: 8% | NUCLEATED RED BLOOD CELLS [2]: 0 /100WBC | PLATELET COUNT [2]: 1271.67 x10E3/uL | ALANINE AMINOTRANSFERASE [2]: 58.33 u/L | ALBUMIN [2]: 4.17 G/DL | ALKALINE PHOSPHATASE [2]: 353 u/L | ASPARTATE AMINOTRANSFERASE [2]: 84.33 u/L | BLOOD UREA NITROGEN [2]: 16 mg/dL | CARBON DIOXIDE [2]: 25.67 mmol/L | CHLORIDE [2]: 103.33 MEQ/L | CHOLESTEROL [2]: 80.33 mg/dL | CREATINE PHOSPHOKINASE [2]: 323.67 u/L | CREATININE [2]: 0.22 mg/dL | GLUCOSE [2]: 150.33 mg/dL | LACTATE DEHYDROGENASE [2]: 269.33 u/L | LIPASE [2]: 10 u/L | PHOSPHORUS [2]: 13 mg/dL | POTASSIUM [2]: 6.3 MEQ/L | SODIUM [2]: 143.7 MEQ/L | TOTAL BILIRUBIN [2]: 0.13 mg/dL | TOTAL PROTEIN [2]: 5.9 G/DL | URIC ACID [2]: 1.67 mg/dL | ABSOLUTE BASOPHIL [3]: 0 CELLS/uL | ABSOLUTE EOSINOPHIL [3]: 156 CELLS/uL | ABSOLUTE LYMPHOCYTE [3]: 12938 CELLS/uL | ABSOLUTE MONOCYTE [3]: 42 CELLS/uL | ABSOLUTE SEGMENTED NEUTROPHIL [3]: 1064 CELLS/uL | BASOPHIL [3]: 0% | EOSINOPHIL [3]: 1.33% | ERYTHROCYTE COUNT [3]: 5.68 x10E6/uL | HEMATOCRIT [3]: 35.27% | HEMOGLOBIN [3]: 13.93 G/DL | LEUKOCYTE COUNT [3]: 14.2 x10E3/uL | LYMPHOCYTE [3]: 90.33% | MEAN CORPUSCULAR HEMOGLOBIN [3]: 24.53 pg | MEAN CORPUSCULAR HEMOGLOBIN CONCENTRATION [3]: 39.5 G/DL | MEAN CORPUSCULAR VOLUME [3]: 62.13 fL | MONOCYTE [3]: 0.33% | NEUTROPHIL [3]: 8% | NUCLEATED RED BLOOD CELLS [3]: 0 /100WBC | PLATELET COUNT [3]: 1229.33 x10E3/uL | ALANINE AMINOTRANSFERASE [3]: 60 u/L | ALBUMIN [3]: 4.2 G/DL | ALKALINE PHOSPHATASE [3]: 309 u/L | ASPARTATE AMINOTRANSFERASE [3]: 77.67 u/L | BLOOD UREA NITROGEN [3]: 18 mg/dL | CARBON DIOXIDE [3]: 32 mmol/L | CHLORIDE [3]: 100.67 MEQ/L | CHOLESTEROL [3]: 94.33 mg/dL | CREATINE PHOSPHOKINASE [3]: 141 u/L | CREATININE [3]: 0.18 mg/dL | GLUCOSE [3]: 140 mg/dL | LACTATE DEHYDROGENASE [3]: 104 u/L | LIPASE [3]: 9.67 u/L | PHOSPHORUS [3]: 11.33 mg/dL | POTASSIUM [3]: 6.92 MEQ/L | SODIUM [3]: 144.13 MEQ/L | TOTAL BILIRUBIN [3]: 0.17 mg/dL | TOTAL PROTEIN [3]: 6 G/DL | URIC ACID [3]: 1.43 mg/dL | ABSOLUTE BASOPHIL [4]: 0 CELLS/uL | ABSOLUTE EOSINOPHIL [4]: 45.67 CELLS/uL | ABSOLUTE LYMPHOCYTE [4]: 13556.33 CELLS/uL | ABSOLUTE MONOCYTE [4]: 151.67 CELLS/uL | ABSOLUTE SEGMENTED NEUTROPHIL [4]: 1413 CELLS/uL | BASOPHIL [4]: 0% | EOSINOPHIL [4]: 0.33% | ERYTHROCYTE COUNT [4]: 5.47 x10E6/uL | HEMATOCRIT [4]: 33.33% | HEMOGLOBIN [4]: 13.37 G/DL | LEUKOCYTE COUNT [4]: 15.17 x10E3/uL | LYMPHOCYTE [4]: 88.67% | MEAN CORPUSCULAR HEMOGLOBIN [4]: 24.47 pg | MEAN CORPUSCULAR HEMOGLOBIN CONCENTRATION [4]: 40.1 G/DL | MEAN CORPUSCULAR VOLUME [4]: 60.97 fL | MONOCYTE [4]: 1% | NEUTROPHIL [4]: 10% | NUCLEATED RED BLOOD CELLS [4]: 0 /100WBC | PLATELET COUNT [4]: 1262.67 x10E3/uL | ALANINE AMINOTRANSFERASE [4]: 63.33 u/L | ALBUMIN [4]: 4.13 G/DL | ALKALINE PHOSPHATASE [4]: 352 u/L | ASPARTATE AMINOTRANSFERASE [4]: 99 u/L | BLOOD UREA NITROGEN [4]: 19.33 mg/dL | CARBON DIOXIDE [4]: 24 mmol/L | CHLORIDE [4]: 106.67 MEQ/L | CHOLESTEROL [4]: 73 mg/dL | CREATINE PHOSPHOKINASE [4]: 430.33 u/L | CREATININE [4]: 0.2 mg/dL | GLUCOSE [4]: 150.33 mg/dL | LACTATE DEHYDROGENASE [4]: 413.67 u/L | LIPASE [4]: 9.67 u/L | PHOSPHORUS [4]: 11.63 mg/dL | POTASSIUM [4]: 6.95 MEQ/L | SODIUM [4]: 148.53 MEQ/L | TOTAL BILIRUBIN [4]: 0.17 mg/dL | TOTAL PROTEIN [4]: 6.03 G/DL | URIC ACID [4]: 1.6 mg/dL
